Reference: patent US8283106B2, “Sulfonic acid salt and derivative thereof, photoacid generator agent, and resist material and pattern formation method using the photoacid generator agent” (Central Glass Company, Limited, priority 2007, dated 2012)
Read-outs that look alike come from different tables or passages of the source.

Experiments:
[1] = Resist compatibility of acid generator with base resin in resist composition; assay type: physicochemical; settings: for Compatibility: acid generator (1.0), PGMEA (400)
Protocol: Resist compositions were prepared using the above sulfonic acid onium salts PAG 1 and PAG 2 as acid generators and the following polymers (Resin 1 to 5) as base resins. Resist solutions were obtained by filtering the resist compositions with […] membrane filters, respectively.
Each of the obtained resist solutions was spin-coated on a silicon wafer to form a resist film of 250 nm thickness. The resist film was prebaked at 110° C., exposed to a 248-nm ultraviolet ray through a photomask, and then, subjected to post exposure baking treatment at 120° C. After that, the resist film was developed with a […] aqueous tetramethylammonium hydroxide solution for 1 minute at 23° C.
For comparison purposes, the above sulfonic acid onium salts PAG 3, PAG 4 and PAG 7 were tested for the resist compatibility and resist resolution under the same conditions as to the above working examples.

[2] = Resist solvent solubility; assay type: physicochemical
Protocol: Using propylene glycol monomethyl ether acetate (PGMEA) as a resist solvent, the solubility of PAG 1 to PAG 6 in the resist solvent was measured.

Molecule | Compatibility ([1]; Resin 1 (40 pts. wt.)) | Compatibility ([1]; Resin 2 (40 pts. wt.)) | Compatibility ([1]; Resin 3 (40 pts. wt.)) | Compatibility ([1]; Resin 4 (40 pts. wt.)) | Compatibility ([1]; Resin 5 (40 pts. wt.)) | resist compatibility compared with the conventional salts ([1]; summary of TABLES 2 and 3) | resist solvent solubility relative to urethane bond-free sulfonic acid onium salts (PAG 3 to PAG 6) ([2]; PGMEA) | Solubility ([2]; resist solvent propylene glycol monomethyl ether acetate (PGMEA)) | Solubility [2]
O=C(NC12CC3CC(CC(C3)C1)C2)OCC(F)(F)S(=O)(=O)O [PAG 2, triphenylsulfonium adamantane-1-yl-carbamic acid-2,2-difluoroethylsulfonate] | Good | Good | Good | Good | Good | higher resist compatibility | twice or more higher | 0.7 parts by weight of PAG dissolved in 100 parts by weigh of PGMEA | –
O=C(OCC12CC3CC(CC(C3)C1)C2)C(F)(F)S(=O)(=O)O [PAG 4, triphenylsulfonium (adamantane-1-yl-methyl)oxycarbonyldifluoromethanesulfonate] | Good | Good | Good | Good | Good | – | – | – | 0.3 parts by weight of PAG dissolved in 100 parts by weigh of PGMEA
O=C(OCC(F)(F)S(=O)(=O)O)C12CC3CC(CC(C3)C1)C2 [PAG 6, triphenylsulfonium 2-(1′-adamantane)carbonyloxy-1,1-difluoroethanesulfonate] | – | – | – | – | – | – | – | – | 0.2 parts by weight of PAG dissolved in 100 parts by weigh of PGMEA
triphenylsulfonium cyclohexyloxycarbonyldifluoromethanesulfonate [PAG 3] | Slightly poor | Slightly poor | Slightly poor | Slightly poor | Slightly poor | – | – | – | 0.4 parts by weight of PAG dissolved in 100 parts by weigh of PGMEA
